Consider ten molecules from patent EP3763715A1, “HARRINGTONINES SALTS, IN PARTICULAR RETINOATES, THEIR PROCESS OF PREPARATION AND THEIR USES IN THE TREATMENT OF LEUKEMIAS, CANCERS, AUTOIMMUNE, SKIN, ALZHEIMER'S AND INFLAMMATORY BOWEL DISEASES AND VIRAL INFECTIONS, COMBINED WITH MYELOPOIESIS STIMULATING AGENTS” (Robin, Jean-Pierre, priority 2019, dated 2021).

A value given as a limit tells only on which side of the number the result lay.

One experiment deals with HL-60 cell line. Briefly: Testing on HL-60 leukemia cell line (MTT cytotoxicity). Conditions: HL-60 cells, medium with 20% fetal bovine serum, preliminary screening, read-out: HL60 (APL) IC50. Format: cell-based, human. Here is the method:
(§1) Retinoates of harringtonines described in this invention were tested on K562 cell line which is derived from the pleural effusion of a person with chronic myelogenous leukemia (CML, bcr-abl positive) in terminal blast crises (Lozzio and Lozzio, Blood, 1975, p321). The cell line was purchased from ATCC (American Tissue Culture Collection) and grown in RPMI medium supplemented with 10% heat-inactivated fetal calf serum, 2 mmol/L glutamine, […] penicillin and […] streptomycin. All tested products were initially dissolved in 2N HCl (pH=2) (alkaloid base) or in aqueous solvent (salt) or in DMSO (retinoids), supplemented with ultrasound treatment during 1 h. Working concentrations were made by dilution in culture medium (pH 7). Cells in exponential growth phase were placed into 96-microwell plates in concentration 3x10^4/mL (total volume 200 µL/well) and incubated with drugs for 72 h at 37° C. in 5% CO2 humidified atmosphere. Following incubation, 28 µL of MTT 3-(4,5 dimethylthiazol-2-yl)-2,5 tetrazolium bromide] dye solution (Sigma, St. Louis, Mo.) was added to each well. During the following 6 h of incubation at 37° C., the purple formazan product was formed by conversion of the yellow MTT salt in the mitochondria of the viable cells. The resulting precipitate was dissolved in DMSO and the amount of converted MTT was quantified in an ELISA reader (MR 5000, Dynatech). Each product was tested in triplicate (3x8 wells). Every test contained at least one plate with HHT as control, added in the same concentration as the tested products.
Retinoates of harringtonines described in this invention were tested on HL-60 cell line, derived from acute promyelocytic leukemia (APL) cells. HL-60 is a promyelocytic cell line derived by S.J. Collins, et al. (Proc. Natl. Acad. Sci. USA 1978 p2458). Peripheral blood leukocytes were obtained by leukopheresis from a person with APL (Gallagher R, et al. Blood 1978, p713) The cell line was purchased from ATCC (American Tissue Culture Collection) and the base growth medium was also completed with fetal bovine serum but at a final concentration of 20%, otherwise the same method than the one of example 10 was used.
Preliminary screening using this tumor cell lines are gathered in table 1.

The next experiment relates to K562 cell line. Briefly: Testing on K562 leukemia cell line (MTT cytotoxicity). Format: cell-based, human. Conditions: K562 cells, 72 h incubation, preliminary screening, read-out: K562 (CML) IC50. Here is the method: as §1

For orientation: IC50 means the concentration that inhibits the measured activity by half. Consider `CC(C=CC1=C(C)CCCC1(C)C)=CC=CC(C)=CC(=O)O.COC(=O)CC(O)(CCC(C)(C)O)C(=O)OC1C(OC)=CC23CCCN2CCc2cc4c(cc2C13)OCO4` (stereo not drawn) [Example 2, harringtonine all-trans-retinoate], for which the IC50 was over 100 nM in the experiment on HL-60 cell line and under 100 nM with K562 cell line.

Consider `CC(C=CC1=C(C)CCCC1(C)C)=CC=CC(C)=CC(=O)O.COC(=O)CC(O)(CCCC(C)(C)O)C(=O)OC1C(OC)=CC23CCCN2CCc2cc4c(cc2C13)OCO4` (stereo not drawn) [Example 3, homoharringtonine 13-cis-retinoate], for which the half-maximal inhibitory concentration (IC50) in the experiment with K562 cell line is under 50 nM. On to `COC(=O)CC(O)(CCCC(C)(C)O)C(=O)OC1C(OC)=CC23CCCN2CCc2cc4c(cc2C13)OCO4.COc1cc(C)c(C=CC(C)=CC=CC(C)=CC(=O)O)c(C)c1C` (stereo not shown) [Example 4, homoharringtonine "acitretinoate"], for which the IC50 was under 100 nM in the experiment on HL-60 cell line and under 50 nM in the experiment with K562 cell line. Turning to `COC(=O)CC(O)(CCCC(C)(C)O)C(=O)OC1C(OC)=CC23CCCN2CCc2cc4c(cc2C13)OCO4.O=C(O)C=Cc1ccc(-c2ccc(O)c(C34CC5CC(CC(C5)C3)C4)c2)cc1` (stereo not shown) [Example 6, homoharringtonine "adarotenoate"], the results for the half-maximal inhibitory concentration (IC50) in the experiment with HL-60 cell line and with K562 cell line were under 100 nM and under 50 nM, respectively.

As to `COC(=O)C[C@](O)(CCC(C)(C)O)C(=O)O[C@@H]1C(OC)=C[C@]23CCCN2CCc2cc4c(cc2[C@H]13)OCO4.COc1ccc(-c2ccc3cc(C(=O)O)ccc3c2)cc1C12CC3CC(CC(C3)C1)C2` [Example 9, harringtonine "adapalenoate"], in the experiment on K562 cell line, the IC50 was under 100 nM. Still for that read-out and setting: the figure for `CC(=Cc1ccc(C(=O)O)cc1)c1ccc2c(c1)C(C)(C)CCC2(C)C.COC(=O)CC(O)(CCCC(C)(C)O)C(=O)OC1C(OC)=CC23CCCN2CCc2cc4c(cc2C13)OCO4` (stereo not shown) [Example 13, homoharringtonine arotinoate] is under 50 nM; for `CC(=Cc1ccc(C(=O)O)cc1)c1ccc2c(c1)C(C)(C)CCC2(C)C.COC(=O)CC(O)(CCC(C)(C)O)C(=O)OC1C(OC)=CC23CCCN2CCc2cc4c(cc2C13)OCO4` (stereo not shown) [Example 14, harringtonine arotinoate] it is under 100 nM. In the case of `COC(=O)CC(O)(CCCC(C)(C)O)C(=O)O[C@@H]1C(OC)=C[C@]23CCCN2CCc2cc4c(cc2[C@H]13)OCO4.Cc1ccc(C2=CCC(C)(C)c3ccc(C#Cc4ccc(C(=O)O)cc4)cc32)cc1` (stereo partly drawn) [Example 16, Butanedioic acid, 2-hydroxy-2-(4-hydroxy-4-methylpentyl)-, 1-[(1S,3aR,14bS)-1,5,6,8,9,14b-hexahydro-2-methoxy-4H-cyclopenta[a][1,3]dioxolo[4,5-h]pyrrolo[2,1-b][3]benzazepin-1-yl]4-methyl ester, 4-[[5,6-dihydro-5,5-dimethyl-8-(4-methylphenyl)-2-naphthalenyl]ethynyl]benzoate], the IC50 with HL-60 cell line was under 100 nM; with K562 cell line, under 50 nM. In the same order, the values of `COC(=O)CC(O)(CCC(C)(C)O)C(=O)OC1C(OC)=CC23CCCN2CCc2cc4c(cc2C13)OCO4.COc1cc(C)c(C=CC(C)=CC=CC(C)=CC(=O)O)c(C)c1C` (stereo not shown) [Example 17, harringtonine acitretinate] are under 100 nM and under 50 nM.

Regarding OP5215 all-trans-retinoate [Example 24], the IC50 in the experiment with HL-60 cell line was under 100 nM; in the experiment with K562 cell line it was under 50 nM.
